From patent US5658880A, “Sialic acid/fucose based medicaments” (Glycomed Incorporated, priority 1994, dated 1997) come the findings set out here.

pIC50: −log10 of the molar value.

The test system of one assay is E-selectin. Put plainly: ELISA: inhibition of E-selectin-IgG chimera binding to 2,3 sLe^x glycolipid. Also on record: species or system human. To be noted: inhibition of binding to 2,3 sLex glycolipid. The text has this:
(§1) An ELISA assay is preferably used that employs recombinant fusion proteins composed of extracellular portions of the human selectins joined to human immunoglobulin heavy chain CH3, CH2, and hinge regions. See, for example, Walz et al., Science (1990) 250:1132; Aruffo et al., Cell (1991) 67:35; Aruffo et al., Proc. Natl. Acad. Sci. USA. (1992) 89:2292. The assay is well known in the art, and generally consists of the following three steps:
(§2) I. 2,3 sLe^x glycolipid (25 picomole/well) was transferred into microtiter wells as solutions and then evaporated off. Excess, which remained unattached, was washed off with water. The wells were then blocked with 5% BSA at room temperature for an hour and then washed with PBS containing 1 mM calcium.
(§3) II. Preparation of "multivalent" receptor of the Selectin-lgG chimera was carried out by combining the respective chimera (1 μg/mL) with biotin labelled goat F(ab')2 anti-human IgG (Fc specific) and streptavidin-alkaline phosphatase diluted 1:1000 in 1% BSA-PBS (1 mM calcium) and incubating at 37° C. for 15 min. This allowed the soluble multivalent receptor complex to form. III. Potential inhibitors such as the compounds of formula I or II were allowed to react with the soluble receptor at 37° C. for 45 min. This test assumes that optimal binding, between the soluble phase receptor complex and the inhibitor (non natural ligand), would have occurred within this time frame. This solution was then placed in the microtiter wells that were prepared in step I. The plate was incubated at 37° C. for 45 minutes to allow the soluble receptor to bind to its natural ligand. In the presence of a strong inhibitor only a few receptors should be free to bind to the microtiter plate coated with the natural ligand.
(§4) The positive control is the signal produced by the soluble receptor when it is allowed to react with 2,3 sLe^x glycolipid in the microtiter wells in the absence of any inhibitor. This positive control was considered 100% binding. The signal produced by the receptor that had been previously treated with an inhibitor (recorded as O.D.), was divided by the signal produced by the positive control and multiplied by 100 to calculate the % receptor bound to the well in the presence of the inhibitor. The reciprocal of this number is the % inhibition.
(§5) An ELISA assay was employed that uses recombinant fusion proteins composed of extracellular portions of the human selectins joined to human immunoglobulin heavy chain CH3, CH2, and hinge regions. See, for example, Walz et al., Science (1990) 250:1132; Aruffo et al., Cell (1991) 67:35; Aruffo et al., Proc. Natl. Acad. Sci. USA (1992) 89:2292. The assay is well known in the art, and generally consists of the following three steps:
(§6) II. Preparation of "multivalent" receptor of the Selectin-IgG chimera was carried out by combining the respective chimera 1 μg/ml) with biotin labelled goat F(ab')2 anti-human IgG (Fc specific) and streptavidin-alkaline phosphatase diluted 1:1000 in 1% BSA-PBS (1 mM calcium) and incubating at 37° C. for 15 min. This allowed the soluble multivalent receptor complex to form.
(§7) III. Potential inhibitors such as compounds of formula I or II were allowed to react with the soluble receptor at 37° C. for 45 min. This test assumes that optimal binding, between the soluble phase receptor complex and the inhibitor (non natural ligand), would have occurred within this time frame. This solution was then placed in the microtiter wells that were prepared in step I. The plate was incubated at 37° C. for 45 minutes to allow the soluble receptor to bind to its natural ligand. In the presence of a strong inhibitor only a few receptors should be free to bind to the microtiter plate coated with the natural ligand.
(§8) The positive control is the signal produced by the soluble receptor when it is allowed to react with 2,3 sLe^x glycolipid in the microtiter wells in the absence of any inhibitor. This was considered 100% binding. […]

A further assay has as its system P-selectin. The experiment in a line: ELISA: inhibition of P-selectin-IgG chimera binding to 2,3 sLe^x glycolipid. Also on record: species or system human. To be noted: inhibition of binding to 2,3 sLex glycolipid.
Excerpt: as §1, §2, §3, §4, §5, §6, §7, §8

Assay [1] deals with neutrophil migration into the peritoneum. Put plainly: Murine thioglycollate induced peritonitis: neutrophil migration to the peritoneal cavity. To be noted: mice, tail vein injection, 3 h after thioglycollate, FIG. 7(a) and (b). The format is in vivo, mouse (Swiss Webster). The text has this: The efficaciousness of 7 and 10 was shown using a murine thioglycollate induced peritonitis model. The assay materials and methods are known in the art, or are generally described by Lewinsohn, D. et al., J. Immun., 138:4313-4321 (1987), or Watson, S. et al., Nature 349:164-166 (1991). This assay measures the ability of the compounds to inhibit neutrophil migration to the peritoneal cavity, the migration being initiated by the presence of thioglycollate in the peritoneal cavity. Thioglycollate is a known and effective inflammatory agent that causes neutrophil migration into the mouse peritoneum when it is administered intraperitoneally. Lewinsohn, D. et al., J. Immun. (1987) 138:4313-4321. Briefly, female Swiss Webster mice weighing about 25 grams were injected in the tail vein with 200 μl of phosphate buffered saline (PBS) with or without the appropriate compound. The pH of the solutions was adjusted to neutrality by the addition of either NaOH or HCL and sterilized by filtration through a 0.2 μ filter. Immediately following injection with the appropriate compound or PBS, the mice were injected intraperitoneally with 1 ml of thioglycollate medium prepared as described by the manufacturer, BBL. Three hours following injection of the thioglycollate solution the mice were sacrificed by CO2 asphyxiation, and the number of cells in the peritoneum removed by lavage with 5 ml of heparinized (5 U/ml) 0.9% sodium chloride solution containing 0.1% bovine serum albumin. Cell number was determined using a Coulter Counter. The cells were prepared for counting by diluting the lavage fluid with 1:50 of a commercial physiological isotonic solution, Isoton II, and the cells lysed by adding S/P Lysing and Hemoglobin Reagent (1:100 final dilution). Cell nuclei were counted in a sized window with lower and upper limits set at 3.9 and 5.7 μm, respectively.

The next assay deals with L-selectin. The experiment in a line: ELISA: inhibition of L-selectin-IgG chimera binding to 2,3 sLe^x glycolipid. Also on record: species or system human.
Excerpt: as §1, §2, §3, §4, §5, §6, §7, §8

As for `CC(OCCCCCCOC1O[C@@H](C)[C@@H](O)[C@@H](O)[C@@H]1O)C(=O)O` (stereo partly drawn) [Compound 10, 1-O-(α-β-L-Fucopyranosyl)-6-O-[(R,S)-1-Carboxyethyl]-Hexane], the values for the pIC50 with E-selectin, in the assay on P-selectin and in the assay on L-selectin (inhibition of binding to 2,3 sLex glycolipid) were 2.52 to 2.70, ~3.30 and 2.52 to 2.70, respectively. Besides, in assay [1], the “inhibit neutrophil migration into the peritoneum” value is “inhibit neutrophil migration into the peritoneum”. Moreover, the “inhibition of L-selectin binding to 2,3 sLe^x glycolipid” value in the assay with L-selectin (FIG. 5 and FIG. 6, result in words) is given as “at all four concentrations of the compound tested there is significant inhibitory activity”.
